# How the values were obtained:
# Test in all cases: Root organogenesis response to transient auxin treatment (pseudonodule count)
# Type in all cases: in vivo
# [1] = tested on: Lotus japonicus ecotype Gifu; conditions: 50 μM for 1 hour, counted 7 days after treatment
# Experimental: (§1) In order to investigate the potential impact of auxin and cytokinin treatment on root organogenesis, seeds of the Medicago truncatula cultivar Jester, the Lotus japonicus ecotype Gifu, and the Hordeum vulgare cultivar Golden Promise were sterilized, and then seedlings were grown on FP media (without Nitrogen and Phosphorus) for 3, 7, and 2 days, respectively. Grown plants were transformed to FP media with either control treatment, 50 μM of 2,4-Dichlorophenoxyacetic acid (synthetic auxin), 100 nM of 6-Benzylaminopurine (synthetic cytokinin) or both of the hormones for 1 hour before moving to FP media. FIG. 1A-1C show the number of pseudonodules/Arrested Lateral roots (ALR) counted 7 days after control treatment, treatment with 2,4-Dichlorophenoxyacetic acid (2,4-D), 6-Benzylaminopurine (BAP), or both.
# [2] = tested on: Hordeum vulgare cultivar Golden Promise; conditions: Hordeum vulgare (barley) roots, 50 μM for 1 hour, counted 7 days after treatment
# Experimental: as §1
# [3] = tested on: Medicago truncatula cultivar Jester; conditions: 50 μM for 1 hour, counted 7 days after treatment
# Experimental: as §1
structure (smiles),measurement,setting,value
"O=C(O)COc1ccc(Cl)cc1Cl [2,4-Dichlorophenoxyacetic acid]",pseudonodule formation compared with control plants,[1],increased pseudonodule formation
same,pseudonodule formation compared with control plants,[2],increased pseudonodule formation
same,pseudonodule formation compared with control plants,[2]; listed as auxin,formation of pseudonodules
same,pseudonodule formation compared with control plants,[3],increased pseudonodule formation

# From patent US20230143932A1, “PIN6 PROTEINS FOR THE FORMATION OF NODULE-LIKE STRUCTURES” (University of Freiburg, priority 2021, published 2023)
